One may read the inhibition as the change of the read-out against control, counted positive when it falls. A higher inhibition goes with strong suppression.

The species named for test [1] is Homo sapiens. The experiment in a line: Ratio of IC50 for human […] dehydrogenase H56A mutant to IC50 for human wild type […] dehydrogenase.
The test system of test [2] is T1, Dihydroorotate dehydrogenase (quinone), mitochondrial (Plasmodium falciparum (isolate 3D7)), Q08210 [F188Y].
T1 sequence (whole entry): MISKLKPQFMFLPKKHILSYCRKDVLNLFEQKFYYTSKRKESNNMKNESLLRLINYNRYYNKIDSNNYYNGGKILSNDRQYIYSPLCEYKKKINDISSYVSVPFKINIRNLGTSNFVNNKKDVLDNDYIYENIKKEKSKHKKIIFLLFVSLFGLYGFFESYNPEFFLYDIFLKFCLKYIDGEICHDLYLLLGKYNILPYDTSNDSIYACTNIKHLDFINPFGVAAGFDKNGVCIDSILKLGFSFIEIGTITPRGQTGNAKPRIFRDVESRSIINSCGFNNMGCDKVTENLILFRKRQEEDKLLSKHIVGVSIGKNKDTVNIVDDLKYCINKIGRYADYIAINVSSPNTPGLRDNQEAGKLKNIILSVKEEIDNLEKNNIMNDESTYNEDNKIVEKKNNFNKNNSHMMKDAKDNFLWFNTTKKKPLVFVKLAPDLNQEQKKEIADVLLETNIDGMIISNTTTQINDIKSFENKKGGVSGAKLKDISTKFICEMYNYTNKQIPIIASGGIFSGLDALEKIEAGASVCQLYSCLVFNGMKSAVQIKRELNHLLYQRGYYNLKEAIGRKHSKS
The experiment in a line: Inhibition of Plasmodium falciparum […] dehydrogenase F188Y mutant expressed in Escherichia coli BL21(DE3) using […] as substrate at 100 uM by DCIP-based colorimetric analysis.

In test [3] the test system is T2, Dihydroorotate dehydrogenase (quinone), mitochondrial (Plasmodium falciparum (isolate 3D7)), Q08210 [H185A].
T2 sequence (whole entry): T1 sequence (whole entry) with H185A, Y188F
The test is described as follows: Inhibition of Plasmodium falciparum […] dehydrogenase H185A mutant expressed in Escherichia coli BL21(DE3) using […] as substrate at 100 uM by DCIP-based colorimetric analysis.

Residue numbers refer to the chain shown, from its start.

Regarding `CCc1cc(O)n2nc(SCc3cc(Cl)ccc3Cl)nc2n1`, the Ratio IC50 in test [1] was found to be 17. In addition, the inhibition in test [2] and in test [3] was less than 50% throughout.
